± gives the expanded uncertainty stated by the source.
Tests used:
[1] = Crystal; DTA
[2] = Molar enthalpy of transition or fusion; conditions: Crystal; DSC

SMILES | Normal melting temperature [1] [°C] | Molar enthalpy of transition or fusion [2] [kcal/mol]
CC(C)n1c2ccccc2c2ccccc21 [9-(1-methylethyl)carbazole] | 120.8 ± 2 | 4.36 ± 0.184
CCn1c2c(c3c1CCCC3)CCCC2 [9-ethyl-2,3,4,5,6,7,8,9-octahydro-1H-carbazole] | 43 ± 2 | 4.92 ± 0.139
CCn1c2ccccc2c2ccccc21 [9-ethylcarbazole] | 69.2 ± 2 | 3.96 ± 0.12
Cn1c2ccccc2c2ccccc21 [9-methyl-9H-carbazole] | 88 ± 2 | 3.93 ± 0.136
CCCCn1c2ccccc2c2ccccc21 [N-butyl-9H-carbazole] | 57.5 ± 2 | 5.45 ± 0.136
CCCn1c2ccccc2c2ccccc21 [N-propyl-9H-carbazole] | 47.2 ± 2 | 4.68 ± 0.117

Results, then the molecule that gave them:

Normal melting temperature [1] [°C] | Molar enthalpy of transition or fusion [2] [kcal/mol] | SMILES
118.2 ± 2 | 4.27 ± 0.1 | c1ccc2c3c([nH]c2c1)CCCC3 [2,3,4,9-tetrahydro-1H-carbazole]
9.2 ± 2 | 2.97 ± 0.0765 | CCn1c2c(c3ccccc31)CCCC2 [9-ethyl-2,3,4,9-tetrahydrocarbazole]
244.0 ± 2 | 6.62 ± 0.201 | c1ccc2c(c1)[nH]c1ccccc12 [9H-carbazole]

— the NIST ThermoML archive (doi:10.1021/acs.jced.5b00679)
